Reference: patent EP0007672A1, “Isocyanoalkenes, process and useful intermediates for their preparation, pharmaceutical and fungicidal preparations containing those isocyanoalkenes and the use of the fungicidal preparations in agriculture” (GIST-BROCADES N.V., priority 1978, dated 1980)
Values after ≈ are worked out from the molar mass of the structure shown. Where two headings read alike, the source gives them in different places.

Legend:
storage stability = type: physicochemical
From the text: Those compounds in which Rx or Ry is a hydrogen atom should be stored generally at lower temperatures, e.g. in a refrigerator. The 1-isocyano-l-p-toluenesulphonylethene (Rx and Ry hydrogen atoms) appears to be very unstable. Notwithstanding this the compound, in the reaction medium in which it must be present, could be converted with a primary amine into the corresponding imidazole, which in turn, may be converted into its ^picrate. This proves that 1-isocyano-i-p-toluenesulphonylethene exists.

Aspergillus flavus = assay: MIC (Minimum Inhibitory Concentration); type: cell-based; settings: Aspergillus flavus A 2385
Aspergillus parasiticus = assay: MIC (Minimum Inhibitory Concentration); type: cell-based; settings: for MIC: Aspergillus parasiticus A 2396; for MIC values: Aspergillus parasiticus A 2397
Aspergillus versiodor = assay: MIC (Minimum Inhibitory Concentration); type: cell-based; settings: Aspergillus versiodor Nr. 7
Bacillus subtilis = assay: MIC (Minimum Inhibitory Concentration); type: cell-based; settings: ATCC6633; Bacillus subtilis ATCC 6633
Candida albicans = assay: MIC (Minimum Inhibitory Concentration); type: cell-based
Diplococcus pneumoniae = assay: MIC (Minimum Inhibitory Concentration); type: cell-based; settings: Streptococcus pneumoniae; Diplococcus pneumoniae A 2783
Fusarium = assay: MIC (Minimum Inhibitory Concentration); type: cell-based; settings: Fusarium A 3241
Pasteurella multocida = assay: MIC (Minimum Inhibitory Concentration); type: cell-based; settings: Pasteurella multocida A 723; read-out: MIC values
Penicillium islandicum = assay: MIC (Minimum Inhibitory Concentration); type: cell-based; settings: Talaromyces islandicus; Penicillium islandicum D 189
Penicillium italicum = assay: MIC (Minimum Inhibitory Concentration); type: cell-based; settings: Penicillium italicum 278-65
Penicillium patalum = assay: MIC (Minimum Inhibitory Concentration); type: cell-based; settings: Penicillium patalum A 2389
Penicillium rubrum = assay: MIC (Minimum Inhibitory Concentration); type: cell-based; settings: Talaromyces ruber; Penicillium rubrum A 2395
Penicillium veridicatum = assay: MIC (Minimum Inhibitory Concentration); type: cell-based; settings: Penicillium veridicatum A 2370
Proteus morganii = assay: MIC (Minimum Inhibitory Concentration); type: cell-based; settings: Morganella morganii; Proteus morganii 2241
Rhizoctonia solani = assay: MIC (Minimum Inhibitory Concentration); type: cell-based; settings: Rhizoctonia solani 200-25; read-out: MIC values
Staphylococcus aureus = assay: MIC (Minimum Inhibitory Concentration); type: cell-based
Trichophyton equinum = assay: MIC (Minimum Inhibitory Concentration); type: cell-based
[1] = tested on: Trichophyton mentagrophytus; assay: MIC (Minimum Inhibitory Concentration); type: cell-based
Trichophyton quickeaneum = assay: MIC (Minimum Inhibitory Concentration); type: cell-based; settings: Trichophyton quickeaneum A 2040; read-out: MIC values
Trichophyton rubrum = assay: MIC (Minimum Inhibitory Concentration); type: cell-based
[2] = tested on: Trichophyton schoenleinii; assay: MIC (Minimum Inhibitory Concentration); type: cell-based; settings: Trichophyton schoenleinii 435-63; read-out: MIC values
[3] = tested on: Trichophyton soudanese joyeux; assay: MIC (Minimum Inhibitory Concentration); type: cell-based; settings: Trichophyton soudanese joyeux 440-63; read-out: MIC values
Trichophyton tonsurans = assay: MIC (Minimum Inhibitory Concentration); type: cell-based; settings: Trichophyton tonsurans 561-50; read-out: MIC values
Trichophyton verrucosum = assay: MIC (Minimum Inhibitory Concentration); type: cell-based
Trichophyton violoceum = assay: MIC (Minimum Inhibitory Concentration); type: cell-based; settings: Trichophyton violoceum 442-62; read-out: MIC values
Fusarium (bulb) = assay: MIC (Minimum Inhibitory Concentration); type: cell-based; settings: Fusarium (bulb) A 3252
Fusarium (tulip) = assay: MIC (Minimum Inhibitory Concentration); type: cell-based; settings: Fusarium (tulip) A 3253
Fusarium solani = assay: MIC (Minimum Inhibitory Concentration); type: cell-based; settings: Fusarium solani A 3245; read-out: MIC values
[4] = Candida albicans A 7, read-out: MIC values
[5] = Candida albicans A 3140, read-out: MIC values
[6] = Candida albicans A 3141, read-out: MIC values
[7] = Candida albicans A 3144, read-out: MIC values
[8] = Candida albicans A 3145, read-out: MIC values
[9] = Candida albicans A 3165, read-out: MIC values
[10] = Candida albicans A 3167, read-out: MIC values
[11] = Candida albicans A 3168, read-out: MIC values
[12] = Candida albicans A 3169, read-out: MIC values
[13] = Candida albicans A 3171, read-out: MIC values
[14] = Candida albicans A 3191, read-out: MIC values
[15] = Candida albicans A 3194, read-out: MIC values
[16] = Candida albicans A 3196, read-out: MIC values
[17] = Trichophyton equinum 182-76, read-out: MIC values
[18] = Trichophyton equinum 856-71, read-out: MIC values
[19] = Trichophyton mentagrophytus 367-68, read-out: MIC values
[20] = Trichophyton mentagrophytus 421-67, read-out: MIC values
[21] = Trichophyton mentagrophytus A 3252, read-out: MIC values
[22] = Trichophyton mentagrophytus R 177, read-out: MIC values
[23] = Trichophyton mentagrophytus R 178, read-out: MIC values
[24] = Trichophyton mentagrophytus RRL 305, read-out: MIC values
[25] = Trichophyton rubrum 218-65, read-out: MIC values
[26] = Trichophyton rubrum 494-62, read-out: MIC values
[27] = Trichophyton rubrum A 810, read-out: MIC values
[28] = Trichophyton verrucosum 134-66, read-out: MIC values
[29] = Trichophyton verrucosum A 2922, read-out: MIC values

Structure (SMILES): [C-]#[N+]C(=C)S(=O)(=O)c1ccc(C)cc1 [Example 8, 1-isocyano-1-(4-toluenesulphonyl)-ethene]
- stability (storage stability): very unstable

Structure (SMILES): [C-]#[N+]C(=C(C)c1ccco1)S(=O)(=O)c1ccc(C)cc1 [Example 13, 1-isocyano-2-(2-furanyl)-1-(4-toluenesulphonyl)-1-propene]
- MIC (Aspergillus flavus): 12.5 µg/mL (≈ 43.5 µM)
- MIC (Aspergillus parasiticus): 6 µg/mL (≈ 20.9 µM)
- MIC values (Aspergillus parasiticus): 6 µg/mL (≈ 20.9 µM)
- MIC (Aspergillus versiodor): > 100 µg/mL
- MIC (Bacillus subtilis): 1.5 µg/mL (≈ 5.22 µM)
- MIC (Candida albicans; [4]): 0.1 µg/mL (≈ 0.348 µM)
- MIC (Candida albicans; [5]): 0.2 µg/mL (≈ 0.696 µM)
- MIC (Candida albicans; [6]): < 0.05 µg/mL
- MIC (Candida albicans; [7]): 0.2 µg/mL (≈ 0.696 µM)
- MIC (Candida albicans; [8]): < 0.05 µg/mL
- MIC (Candida albicans; [9]): 1.5 µg/mL (≈ 5.22 µM)
- MIC (Candida albicans; [10]): 0.4 µg/mL (≈ 1.39 µM)
- MIC (Candida albicans; [11]): 0.2 µg/mL (≈ 0.696 µM)
- MIC (Candida albicans; [12]): 0.2 µg/mL (≈ 0.696 µM)
- MIC (Candida albicans; [13]): < 0.05 µg/mL
- MIC (Candida albicans; Candida albicans A 3190, read-out: MIC values): < 0.05 µg/mL
- MIC (Candida albicans; [14]): < 0.05 µg/mL
- MIC (Candida albicans; [15]): < 0.05 µg/mL
- MIC (Candida albicans; [16]): < 0.05 µg/mL
- MIC (Diplococcus pneumoniae): 12.5 µg/mL (≈ 43.5 µM)
- MIC (Fusarium): 50 µg/mL (≈ 174 µM)
- MIC (Pasteurella multocida): 0.75 µg/mL (≈ 2.61 µM)
- MIC (Penicillium islandicum): 12.5 µg/mL (≈ 43.5 µM)
- MIC (Penicillium italicum): 3 µg/mL (≈ 10.4 µM)
- MIC (Penicillium patalum): 25 µg/mL (≈ 87 µM)
- MIC (Penicillium rubrum): 25 µg/mL (≈ 87 µM)
- MIC (Penicillium veridicatum): 3 µg/mL (≈ 10.4 µM)
- MIC (Proteus morganii): 12.5 µg/mL (≈ 43.5 µM)
- MIC (Rhizoctonia solani): 6 µg/mL (≈ 20.9 µM)
- MIC (Staphylococcus aureus; Staphylococcus aureus A 321): 12.5 µg/mL (≈ 43.5 µM)
- MIC (Staphylococcus aureus; Staphylococcus aureus A 355): 6 µg/mL (≈ 20.9 µM)
- MIC (Staphylococcus aureus; Staphylococcus aureus A 2000): 6 µg/mL (≈ 20.9 µM)
- MIC (Trichophyton equinum; [17]): 1.5 µg/mL (≈ 5.22 µM)
- MIC (Trichophyton equinum; [18]): 0.1 µg/mL (≈ 0.348 µM)
- MIC [1, 19]: 3 µg/mL (≈ 10.4 µM)
- MIC [1, 20]: 3 µg/mL (≈ 10.4 µM)
- MIC [1, 21]: 3 µg/mL (≈ 10.4 µM)
- MIC [1, 22]: 3 µg/mL (≈ 10.4 µM)
- MIC [1, 23]: 12.5 µg/mL (≈ 43.5 µM)
- MIC [1, 24]: 3 µg/mL (≈ 10.4 µM)
- MIC (Trichophyton quickeaneum): 0.4 µg/mL (≈ 1.39 µM)
- MIC (Trichophyton rubrum; [25]): 0.8 µg/mL (≈ 2.78 µM)
- MIC (Trichophyton rubrum; [26]): 0.8 µg/mL (≈ 2.78 µM)
- MIC (Trichophyton rubrum; [27]): 0.8 µg/mL (≈ 2.78 µM)
- MIC [2]: 3 µg/mL (≈ 10.4 µM)
- MIC [3]: 6 µg/mL (≈ 20.9 µM)
- MIC (Trichophyton tonsurans): 3 µg/mL (≈ 10.4 µM)
- MIC (Trichophyton verrucosum; [28]): 0.8 µg/mL (≈ 2.78 µM)
- MIC (Trichophyton verrucosum; [29]): 3 µg/mL (≈ 10.4 µM)
- MIC (Trichophyton violoceum): 3 µg/mL (≈ 10.4 µM)

Structure (SMILES): C[C@@H]1C/C=C/C=C/C=C/C=C/[C@H](O[C@@H]2O[C@H](C)[C@@H](O)[C@H](N)[C@@H]2O)C[C@@H]2O[C@](O)(C[C@@H](O)C[C@H]3O[C@@H]3/C=C/C(=O)O1)C[C@H](O)[C@H]2C(=O)O [natamycin, reference compound]
- MIC (Aspergillus flavus): 50 µg/mL (≈ 75.1 µM)
- MIC (Aspergillus parasiticus): 2.5 µg/mL (≈ 3.76 µM)
- MIC values (Aspergillus parasiticus): 2.5 µg/mL (≈ 3.76 µM)
- MIC (Aspergillus versiodor): 6 µg/mL (≈ 9.01 µM)
- MIC (Candida albicans; [4]): 12.5 µg/mL (≈ 18.8 µM)
- MIC (Candida albicans; [5]): 25 µg/mL (≈ 37.6 µM)
- MIC (Candida albicans; [6]): 3 µg/mL (≈ 4.51 µM)
- MIC (Candida albicans; [7]): 3 µg/mL (≈ 4.51 µM)
- MIC (Candida albicans; [8]): 3 µg/mL (≈ 4.51 µM)
- MIC (Candida albicans; [9]): 25 µg/mL (≈ 37.6 µM)
- MIC (Candida albicans; Candida albicans A 3166, read-out: MIC values): 6 µg/mL (≈ 9.01 µM)
- MIC (Candida albicans; [10]): 1.5 µg/mL (≈ 2.25 µM)
- MIC (Candida albicans; [11]): 12.5 µg/mL (≈ 18.8 µM)
- MIC (Candida albicans; [12]): 1.5 µg/mL (≈ 2.25 µM)
- MIC (Candida albicans; [13]): 6 µg/mL (≈ 9.01 µM)
- MIC (Candida albicans; [14]): 6 µg/mL (≈ 9.01 µM)
- MIC (Candida albicans; [15]): 3 µg/mL (≈ 4.51 µM)
- MIC (Candida albicans; [16]): 6 µg/mL (≈ 9.01 µM)
- MIC (Fusarium (bulb)): 6 µg/mL (≈ 9.01 µM)
- MIC (Fusarium (tulip)): 6 µg/mL (≈ 9.01 µM)
- MIC (Fusarium solani): 9.3 µg/mL (≈ 14 µM)
- MIC (Fusarium): 3 µg/mL (≈ 4.51 µM)
- MIC (Penicillium islandicum): 3 µg/mL (≈ 4.51 µM)
- MIC (Penicillium italicum): 3 µg/mL (≈ 4.51 µM)
- MIC (Penicillium patalum): 3 µg/mL (≈ 4.51 µM)
- MIC (Penicillium rubrum): 3 µg/mL (≈ 4.51 µM)
- MIC (Penicillium veridicatum): 1.5 µg/mL (≈ 2.25 µM)
- MIC (Rhizoctonia solani): 2.3 µg/mL (≈ 3.45 µM)
- MIC (Trichophyton equinum; [17]): 25 µg/mL (≈ 37.6 µM)
- MIC (Trichophyton equinum; [18]): 6 µg/mL (≈ 9.01 µM)
- MIC [1, 19]: 12.5 µg/mL (≈ 18.8 µM)
- MIC [1, 20]: 12.5 µg/mL (≈ 18.8 µM)
- MIC [1, 21]: 100 µg/mL (≈ 150 µM)
- MIC [1, 22]: 50 µg/mL (≈ 75.1 µM)
- MIC [1, 23]: 50 µg/mL (≈ 75.1 µM)
- MIC [1, 24]: 12.5 µg/mL (≈ 18.8 µM)
- MIC (Trichophyton quickeaneum): 12.5 µg/mL (≈ 18.8 µM)
- MIC (Trichophyton rubrum; [25]): 12.5 µg/mL (≈ 18.8 µM)
- MIC (Trichophyton rubrum; [26]): 25 µg/mL (≈ 37.6 µM)
- MIC (Trichophyton rubrum; [27]): 12.5 µg/mL (≈ 18.8 µM)
- MIC [2]: 25 µg/mL (≈ 37.6 µM)
- MIC [3]: 25 µg/mL (≈ 37.6 µM)
- MIC (Trichophyton tonsurans): 12.5 µg/mL (≈ 18.8 µM)
- MIC (Trichophyton verrucosum; [28]): 25 µg/mL (≈ 37.6 µM)
- MIC (Trichophyton verrucosum; [29]): 25 µg/mL (≈ 37.6 µM)
- MIC (Trichophyton violoceum): 50 µg/mL (≈ 75.1 µM)
